Read-outs that look alike come from different tables or passages of the source.
Assays:
D3R [1] = target: T1, D3R (Homo sapiens, UniProt P35462); test: D3R radioligand binding assay ([125I]IABN, HEK cells); parameters: expressed in transfected cells; details: for Ki: human D3 expressed in HEK cells, [125I]IABN radioligand, at least three experiments, HCl salts, read-out: Ki ± SEM D3R; for D2R/D3R Ratio: (Ki for D2R)/(Ki for D3R), D3R versus D2R selectivity (fold)
Procedure: (§1) The receptor binding assay for the D2R and the D3R and the β-arrestin recruitment assay for the D3R were performed by following the previously reported methods.

human D2 = target: T2, human D2 (Homo sapiens, UniProt P14416); test: D2R radioligand binding assay ([125I]IABN, HEK cells); details: human D2 expressed in HEK cells, [125I]IABN radioligand, at least three experiments, HCl salts; read-out: Ki ± SEM D2R
T2 construct: expressed in transfected cells
T2 sequence (P14416 whole entry): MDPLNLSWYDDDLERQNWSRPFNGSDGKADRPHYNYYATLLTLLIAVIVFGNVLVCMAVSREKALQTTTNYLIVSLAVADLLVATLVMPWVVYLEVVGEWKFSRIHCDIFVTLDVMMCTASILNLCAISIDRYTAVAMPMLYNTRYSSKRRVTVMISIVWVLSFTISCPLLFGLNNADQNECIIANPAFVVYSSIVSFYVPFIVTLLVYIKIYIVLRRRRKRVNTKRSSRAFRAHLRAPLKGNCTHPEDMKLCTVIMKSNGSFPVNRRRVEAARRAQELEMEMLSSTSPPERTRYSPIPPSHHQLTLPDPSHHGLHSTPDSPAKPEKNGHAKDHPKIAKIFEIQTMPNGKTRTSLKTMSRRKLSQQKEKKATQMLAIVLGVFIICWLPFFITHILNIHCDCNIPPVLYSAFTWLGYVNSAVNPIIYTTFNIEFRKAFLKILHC
Procedure: as §1

D3R [2] = target: T1, D3R; test: β-arrestin competition (recruitment) assay against dopamine; type: cell-based; details: competition with dopamine (30 nM) for the D3R, at least three experiments; read-out: β-Arrestin Assay IC50 ± SEM
Procedure: Compounds having a longer aliphatic linker ((R,S)-trans-2b–d) have a similar IC50 value in this assay. As expected, the IC50 value of β-arrestin assay parallels the Ki value in the D3R binding assay. It is of interest to note that the potency of (R,S)-trans-2a in the β-arrestin assay is higher than its potency in the in vitro binding assay for the D3R.
as §1

D3R [3] = target: T1, D3R; details: cited from earlier work; for Ki: read-out: D3R affinity
D2R = details: cited from earlier work
D3R [4] = target: T1, D3R; parameters: method as in PMID 33918451; details: MDS, Fallypride; cited from earlier work
[5] = Figure 1, PET radiotracers, read-out: D2R affinity

T1 sequence (P35462 whole entry): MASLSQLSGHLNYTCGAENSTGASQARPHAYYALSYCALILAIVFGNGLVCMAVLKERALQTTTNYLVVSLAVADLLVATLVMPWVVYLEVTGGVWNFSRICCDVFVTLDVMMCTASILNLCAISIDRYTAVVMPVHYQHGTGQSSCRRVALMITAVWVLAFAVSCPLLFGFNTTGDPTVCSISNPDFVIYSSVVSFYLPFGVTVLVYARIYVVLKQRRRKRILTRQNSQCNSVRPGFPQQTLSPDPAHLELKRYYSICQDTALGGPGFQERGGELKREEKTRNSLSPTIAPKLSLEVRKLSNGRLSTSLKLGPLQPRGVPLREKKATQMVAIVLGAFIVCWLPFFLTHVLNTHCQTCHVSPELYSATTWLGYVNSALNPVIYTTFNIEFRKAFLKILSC

Compound | Ki (D3R [1]) [nM] | Ki (human D2) [nM] | IC50 (D3R [2]) [nM] | D2R/D3R Ratio (D3R [1]) | other results
C=CCN1C[C@H](OC(=O)NCCCCCCCCc2cccs2)C[C@@H]1CNC(=O)c1cc(CCCF)cc(OC)c1OC [(R,R)-cis-2i, (3R,5R)-1-allyl-5-((5-(3-fluoropropyl)-2,3-dimethoxybenzamido)methyl)pyrrolidin-3-yl (8-(thiophen-2-yl)octyl)carbamate] | 722 ± 234 | 2190 ± 235 |  | 3.0 | 
C=CCN1C[C@H](OC(=O)NCCOCCOCCOC)C[C@H]1CNC(=O)c1cc(CCCF)cc(OC)c1OC [(R,S)-trans-2e, (3R,5S)-1-allyl-5-((5-(3-fluoropropyl)-2,3-dimethoxybenzamido)methyl)pyrrolidin-3-yl (2-(2-(2-methoxyethoxy)ethoxy)ethyl)carbamate] | 4.1 ± 0.6 | 9.2 ± 0.8 |  | 2.2 | 
C=CCN1C[C@H](OC(=O)NCCOCCOCCOCCOC)C[C@H]1CNC(=O)c1cc(CCCF)cc(OC)c1OC [(R,S)-trans-2f, (3R,5S)-1-allyl-5-((5-(3-fluoropropyl)-2,3-dimethoxybenzamido)methyl)pyrrolidin-3-yl (2,5,8,11-tetraoxatridecan-13-yl)carbamate] | 5.3 ± 0.8 | 11.5 ± 2.6 |  | 2.2 | 
C#CCOCCOCCNC(=O)O[C@@H]1C[C@@H](CNC(=O)c2cc(CCCF)cc(OC)c2OC)N(CC=C)C1 [(R,S)-trans-2g, (3R,5S)-1-allyl-5-((5-(3-fluoropropyl)-2,3-dimethoxybenzamido)methyl)pyrrolidin-3-yl (2-(2-(prop-2-yn-1-yloxy)ethoxy)ethyl)carbamate] | 3.7 ± 0.8 | 9 ± 0.3 |  | 2.4 | 
C=CCN1C[C@H](OC(=O)NCCCCCCc2cccs2)C[C@H]1CNC(=O)c1cc(CCCF)cc(OC)c1OC [(R,S)-trans-2h, (3R,5S)-1-allyl-5-((5-(3-fluoropropyl)-2,3-dimethoxybenzamido)methyl)pyrrolidin-3-yl (6-(thiophen-2-yl)hexyl)carbamate] | 0.6 ± 0.1 | 3.9 ± 0.4 |  | 6.2 | 
C=CCN1C[C@H](OC(=O)NCCCCCCCCc2cccs2)C[C@H]1CNC(=O)c1cc(CCCF)cc(OC)c1OC [(R,S)-trans-2i, (3R,5S)-1-allyl-5-((5-(3-fluoropropyl)-2,3-dimethoxybenzamido)methyl)pyrrolidin-3-yl (8-(thiophen-2-yl)octyl)carbamate] | 0.7 ± 0.1 | 3.7 ± 0.2 |  | 5.6 | 
C=CCN1C[C@H](OC(=O)NCCCCCCCCc2ccsc2)C[C@H]1CNC(=O)c1cc(CCCF)cc(OC)c1OC [(R,S)-trans-2j, (3R,5S)-1-allyl-5-((5-(3-fluoropropyl)-2,3-dimethoxybenzamido)methyl)pyrrolidin-3-yl (8-(thiophen-3-yl)octyl)carbamate] | 2.1 ± 0.1 | 10.5 ± 2 |  | 5.0 | 
C=CCN1C[C@@H](OC(=O)NCCCCCCCCc2cccs2)C[C@@H]1CNC(=O)c1cc(CCCF)cc(OC)c1OC [(S,R)-trans-2i, (3S,5R)-1-allyl-5-((5-(3-fluoropropyl)-2,3-dimethoxybenzamido)methyl)pyrrolidin-3-yl (8-(thiophen-2-yl)octyl)carbamate] | 2420 ± 975 | 1470 ± 166 |  | 0.6 | 
CCCN(CCC1(O)CC(NC(=O)c2ccc3ccccc3c2)C1)C1CC1c1ccc(Cl)cc1 (stereo not drawn) [CJ-1882] |  |  |  |  | Ki (D3R [3]; CJ-1882): 2.8 nM
C=CCN1CCC[C@H]1CNC(=O)c1cc(CCCF)cc(OC)c1OC [Fallypride] |  |  |  |  | Ki (D2R; [5]): 0.02 nM; Distance to D3R ASP110^3.32 (D3R [4]): 3.17 ± 0.21 Å
CCN(CCCCNC(=O)c1cc2ccccc2[nH]1)CCNC(=O)c1cc(Br)cc(OC)c1OC [HY-2-93] |  |  |  |  | D3R/D2R, D3R versus D2R selectivity (fold) (D3R [3]; HY-2-93): 180; Ki (D3R [3]; HY-2-93): 0.8 nM
CC[11CH2]N1CCO[C@@H]2c3cc(O)ccc3CC[C@H]21 [[^11C]-(+)-PHNO] |  |  |  |  | Ki (D2R; Figure 1, printed with superscript H, read-out: ^HD2R affinity): 0.45 nM
CCN1CCC[C@H]1CNC(=O)c1cc(Br)cc(OC)c1O[11CH3] [[^11C]FLB 457] |  |  |  |  | D2R/D3R (D3R [3]; Figure 1, PET radiotracers): 1.294; Ki (D3R [3]; Figure 1, PET radiotracers): 0.017 nM; Ki (D2R; [5]): 0.022 nM
CCN1CCC[C@H]1CNC(=O)c1c(O)c(Cl)cc(Cl)c1OC [[^11C]Raclopride, Raclopride] |  |  |  |  | D2R/D3R (D3R [3]; Figure 1, PET radiotracers): 0.514; Ki (D3R [3]; Figure 1, PET radiotracers): 3.5 nM; Ki (D2R; [5]): 1.8 nM

The next lines start with results.

Ki (D3R [1]) [nM] | Ki (human D2) [nM] | IC50 (D3R [2]) [nM] | D2R/D3R Ratio (D3R [1]) | Compound | other results
1660 ± 433 | 9600 ± 2360 | > 1000 |  | C=CCN1C[C@H](OC(=O)NCCCCCCCCCC)C[C@@H]1CNC(=O)c1cc(CCCF)cc(OC)c1OC [(R,R)-cis-2d, (3R,5R)-1-allyl-5-((5-(3-fluoropropyl)-2,3-dimethoxybenzamido)methyl)pyrrolidin-3-yl decylcarbamate] | 
2.6 ± 0.3 | 4.8 ± 0.5 | 0.8 ± 0.5 | 1.8 | C=CCN1C[C@H](OC(=O)NCCCC)C[C@H]1CNC(=O)c1cc(CCCF)cc(OC)c1OC [(R,S)-trans-2a, (3R,5S)-1-allyl-5-((5-(3-fluoropropyl)-2,3-dimethoxybenzamido)methyl)pyrrolidin-3-yl butylcarbamate] | 
1.6 ± 0.4 | 5.5 ± 1 | 7.8 ± 5.9 | 3.4 | C=CCN1C[C@H](OC(=O)NCCCCCC)C[C@H]1CNC(=O)c1cc(CCCF)cc(OC)c1OC [(R,S)-trans-2b, (3R,5S)-1-allyl-5-((5-(3-fluoropropyl)-2,3-dimethoxybenzamido)methyl)pyrrolidin-3-yl hexylcarbamate] | 
3.4 ± 0.8 | 15.9 ± 3.3 | 27.8 ± 21.1 | 4.7 | C=CCN1C[C@H](OC(=O)NCCCCCCCC)C[C@H]1CNC(=O)c1cc(CCCF)cc(OC)c1OC [(R,S)-trans-2c, (3R,5S)-1-allyl-5-((5-(3-fluoropropyl)-2,3-dimethoxybenzamido)methyl)pyrrolidin-3-yl octylcarbamate] | 
2.8 ± 0.5 | 35.6 ± 8.1 | 21.2 ± 9.8 |  | C=CCN1C[C@H](OC(=O)NCCCCCCCCCC)C[C@H]1CNC(=O)c1cc(CCCF)cc(OC)c1OC [(R,S)-trans-2d, (3R,5S)-1-allyl-5-((5-(3-fluoropropyl)-2,3-dimethoxybenzamido)methyl)pyrrolidin-3-yl decylcarbamate] | 
2630 ± 815 | 1940 ± 380 | > 1000 | 0.7 | C=CCN1C[C@@H](OC(=O)NCCCCCCCCCC)C[C@@H]1CNC(=O)c1cc(CCCF)cc(OC)c1OC [(S,R)-trans-2d, (3S,5R)-1-allyl-5-((5-(3-fluoropropyl)-2,3-dimethoxybenzamido)methyl)pyrrolidin-3-yl decylcarbamate] | 
282 ± 69 | 164 ± 29 | 608 ± 231 |  | C=CCN1C[C@@H](OC(=O)NCCCCCCCCCC)C[C@H]1CNC(=O)c1cc(CCCF)cc(OC)c1OC [(S,S)-cis-2d, (3S,5S)-1-allyl-5-((5-(3-fluoropropyl)-2,3-dimethoxybenzamido)methyl)pyrrolidin-3-yl decylcarbamate] | 
148 ± 37 | 68 ± 12 |  |  | C=CCN1C[C@@H](OC(=O)NCCCCCCCCc2cccs2)C[C@H]1CNC(=O)c1cc(CCCF)cc(OC)c1OC [(S,S)-cis-2i, (3S,5S)-1-allyl-5-((5-(3-fluoropropyl)-2,3-dimethoxybenzamido)methyl)pyrrolidin-3-yl (8-(thiophen-2-yl)octyl)carbamate] | 

Reference: PMC10779535, “Design and Synthesis of D3R Bitopic Ligands with Flexible Secondary Binding Fragments: Radioligand Binding and Computational Chemistry Studies” (Molecules, 2023)
